Test system: tester strains
Test: In vitro Ames bacterial reverse mutation assay
Type: cell-based
Details: presence or absence of microsomal (S9) enzymes
Source text: Therefore, Compound 12 was judged to be not mutagenic.

## CS(=O)(=O)c1cccc(C[C@H](NC(=O)c2c(Cl)cc3c(c2Cl)CCN(C(=O)c2ccc4ccoc4c2)C3)C(=O)O)c1 [Compound 12]
  Ames assay, revertants per plate: not mutagenic

From patent publication US20090258069A1, “Delivery of LFA-1 antagonists to the gastrointestinal system” (priority 2008, published 2009)
